What all share (format): cell-based
The subject of experiment [1] is HCV 1a RLuc cells (dicistronic genotype 1a H77 replicon, RLuc reporter). As to the kind of experiment: microbe, parasite or virus in culture. As to conditions: Hepatitis C virus, genotype 1a replicon; read-out: 1a. In outline:
(§1)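 Renilla luciferase HCV replicon cells: dicistronic 1b Con1, 1a H77 or 2a JFH-1 replicons, or a JFH-1 chimera carrying J6 NS5A (M31 present). Compound in DMSO serial dilutions, 72 h incubation, then lysis and luciferase read. EC50 by non-linear regression.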

For experiment [2], the system named is HCV 1b RLuc cells (dicistronic genotype 1b Con1 replicon, RLuc reporter). As to the kind of experiment: microbe, parasite or virus in culture. To be noted: Hepatitis C virus, read-out: 1b (nM). In outline: as §1
Experiment [3] deals with HCV 2a JFH-1 Rluc cells (dicistronic genotype 2a JFH-1 replicon, RLuc reporter). As to the kind of experiment: microbe, parasite or virus in culture. As to conditions: Hepatitis C virus, genotype 2a JFH-1 replicon; read-out: 2a JFH. The gist of the method:
as §1

Experiment [4] deals with HCV 2b Rluc cells (NS5A chimeric genotype 2a JFH-1 replicon with genotype 2b MD2b-1 NS5A gene, M31 present). As to the kind of experiment: microbe, parasite or virus in culture. As to conditions: Hepatitis C virus, read-out: 2b. The gist of the method:
(§2)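 Replicon cells stably carrying the listed RLuc-encoding dicistronic replicons were seeded and treated with DMSO serial dilutions of compound (10 mM stocks) diluted into culture medium. After 72 h, cells were lysed and Renilla luciferase activity measured. EC50 was derived by non-linear regression.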

The test system of experiment [5] is HCV 3a RLuc cells (NS5A chimeric genotype 1b Con1 replicon with consensus genotype 3a NS5A gene). As to the kind of experiment: microbe, parasite or virus in culture. To be noted: Hepatitis C virus, read-out: 3a, genotype 3a replicon. The gist of the method:
as §2

In experiment [6] the test system is HCV 4a Rluc cells (NS5A chimeric genotype 1b Con1 replicon with genotype 4a NS5A gene). As to the kind of experiment: microbe, parasite or virus in culture. To be noted: Hepatitis C virus, read-out: 4a. The gist of the method: as §2
Experiment [7] relates to HCV 2a Rluc cells (NS5A chimeric genotype 2a JFH-1 replicon with genotype 2a J6 strain NS5A gene, M31 present). As to the kind of experiment: HCV replicon reporter assay, genotype 2a J6 (M31 present). To be noted: Hepatitis C virus, read-out: 2a J6. The gist of the method: as §1

Some results are limits rather than exact numbers.

Take `COC(=O)N[C@H](C(=O)N1[C@@H]2CC[C@@H](C2)[C@H]1c1nc2ccc3cc(-c4ccc5c(ccc6nc([C@@H]7CCCN7C(=O)[C@H](NC(=O)C(C)(C)O)c7ccccc7)[nH]c65)c4)ccc3c2[nH]1)C(C)C` [Example 357]: the EC50 is 1 to 999 pM in experiment [1]; 0.044 nM in experiment [2]; 1 to 999 pM in experiment [3]; 1 to 999 pM in experiment [4]; 1 to 990 pM in experiment [5]; 1 to 990 pM in experiment [6]. For the same compound, the EC50 in experiment [7] lay within 1 to 999 pM.
For `COC(=O)N[C@H](C(=O)N1[C@@H]2CC[C@@H](C2)[C@H]1c1nc2ccc3cc(-c4ccc5c(ccc6nc([C@@H]7CCCN7C(=O)[C@H](NC(=O)N7CCOCC7)c7ccccc7)[nH]c65)c4)ccc3c2[nH]1)C(C)C` [Example 358], the EC50 was 1 to 999 pM in experiment [1]; 0.057 nM in experiment [2]; 1 to 999 pM in experiment [3]; 1 to 999 pM in experiment [4]; 1 to 990 pM in experiment [5]; 1 to 990 pM in experiment [6]. The EC50 in experiment [7] lay within 1 to 999 pM.
In the case of `COC(=O)N[C@H](C(=O)N1CCC[C@H]1c1nc2ccc3cc(-c4ccc5c(ccc6nc([C@@H]7CC8(CN7C(=O)[C@@H](NC(=O)OC)C(C)C)OCCO8)[nH]c65)c4)ccc3c2[nH]1)C(C)C` [Example 363], the EC50 in experiment [1] was 1 to 999 pM; in experiment [2] it was 0.025 nM; in experiment [3], 1 to 999 pM; in experiment [4], over 44000 pM; in experiment [5] it was 1000 to 4990 pM; in experiment [6], 1 to 990 pM. In addition, in experiment [7], the EC50 was in the range of 1000 to 44000 pM.
In the case of `COC(=O)N[C@H](C(=O)N1CCC[C@H]1c1ncc(-c2cc3c4c(c2)OCc2cc(-c5cnc([C@@H]6CCCN6C(=O)[C@H](NC(=O)OC)c6ccccc6)[nH]5)cc(c2-4)OC3)[nH]1)C1CCOCC1` [Example 364], the EC50 in experiment [1] was 1 to 999 pM; in experiment [2], 0.335 nM; in experiment [3] it was 1 to 999 pM; in experiment [4], 1 to 999 pM; in experiment [5], 1 to 990 pM; in experiment [6], 1 to 990 pM. Moreover, the EC50 in experiment [7] was 1 to 999 pM.
In the case of `COC(=O)N[C@H](C(=O)N1CC2(C[C@H]1c1nc3ccc4cc(-c5ccc6c(c5)CCc5nc(C7CCCN7C(=O)[C@H](NC(=O)OC)c7ccccc7)[nH]c5-6)ccc4c3[nH]1)OCCO2)C(C)C` (stereo partly drawn) [Example 365], the EC50 was 1 to 999 pM in experiment [1]; 0.11 nM in experiment [2]; 1 to 999 pM in experiment [3]; 1 to 999 pM in experiment [4]; 1 to 990 pM in experiment [5]; 1 to 990 pM in experiment [6]. In addition, in experiment [7], the EC50 was 1 to 999 pM.
Take `CC#Cc1cc(-c2cnc([C@@H]3CCCN3C(=O)[C@H](NC(=O)OC)c3ccccc3)[nH]2)ccc1-c1ccc2c(ccc3nc([C@@H]4CCCN4C(=O)[C@@H](NC(=O)OC)C(C)C)[nH]c32)c1` [Example 374]: the EC50 is 1 to 999 pM in experiment [1]; 0.019 nM in experiment [2]; 1 to 999 pM in experiment [3]; 1000 to 44000 pM in experiment [4]; 1 to 990 pM in experiment [5]; 1 to 990 pM in experiment [6]. For the same compound, the EC50 in experiment [7] was in the range of 1 to 999 pM.
For `COC(=O)N[C@H](C(=O)N1[C@@H]2CC[C@@H](C2)[C@H]1c1ncc(-c2ccc(-c3ccc4c(ccc5nc([C@@H]6C[C@H]7C[C@H]7N6C(=O)[C@H](NC(=O)OC)c6ccccc6)[nH]c54)c3)cc2)[nH]1)C(C)C` [Example 379], the EC50 was 1 to 999 pM in experiment [1]; 0.009 nM in experiment [2]; 1 to 999 pM in experiment [3]; over 44000 pM in experiment [4]; 1 to 990 pM in experiment [5]; 1 to 990 pM in experiment [6]. Also, in experiment [7], the EC50 lay within 1 to 999 pM.
For the compound `COC(=O)N[C@H](C(=O)N1CCC[C@H]1c1nc2ccc3cc(-c4ccc5cc(-c6[nH]c([C@@H]7CCCN7C(=O)[C@H](NC(=O)OC)c7ccccc7)nc6Cl)ccc5c4)ccc3c2[nH]1)C(C)C` [Example 385], the EC50 in experiment [1] was 1 to 999 pM; in experiment [2], 0.007 nM; in experiment [3] it was 1 to 999 pM; in experiment [4], 1000 to 44000 pM; in experiment [5], 1 to 990 pM; in experiment [6] it was 1 to 990 pM. In addition, the EC50 in experiment [7] was in the range of 1000 to 44000 pM.
Turning to `COC(=O)N[C@H](C(=O)N1CCC[C@H]1c1nc(Cl)c(-c2ccc(-c3ccc4c(ccc5nc([C@@H]6[C@H]7CC[C@H](C7)N6C(=O)[C@@H](NC(=O)OC)C(C)C)[nH]c54)c3)cc2)[nH]1)C(C)C` [Example 386], the EC50 in experiment [1] is 1 to 999 pM; in experiment [2] it was 0.015 nM; in experiment [3] it was 1 to 999 pM; in experiment [4] it was over 44000 pM; in experiment [5] it was 1 to 990 pM; in experiment [6], 1 to 990 pM. The EC50 in experiment [7] is over 44000 pM.
`COC(=O)N[C@H](C(=O)N1CC2(CC2)C[C@H]1c1nc2ccc3cc(-c4ccc(-c5cnc([C@@H]6[C@H]7CC[C@H](C7)N6C(=O)[C@@H](NC(=O)OC)C(C)C)[nH]5)cc4)ccc3c2[nH]1)C(C)C` [Example 387]: the EC50 is 1 to 999 pM in experiment [1]; 0.009 nM in experiment [2]; 1 to 999 pM in experiment [3]; over 44000 pM in experiment [4]; 1 to 990 pM in experiment [5]; 1 to 990 pM in experiment [6]. The EC50 in experiment [7] was over 44000 pM.
`COC(=O)N[C@H](C(=O)N1CCC[C@H]1c1nc2ccc3cc(-c4ccc(-c5[nH]c([C@@H]6[C@H]7CC[C@H](C7)N6C(=O)[C@@H](NC(=O)OC)C(C)C)nc5Cl)cc4)ccc3c2[nH]1)C(C)C` [Example 388]: the EC50 in experiment [1] is 1 to 999 pM; in experiment [2], 0.008 nM; in experiment [3], 1 to 999 pM; in experiment [4], over 44000 pM; in experiment [5], 1 to 990 pM; in experiment [6], 1 to 990 pM. The EC50 in experiment [7] is over 44000 pM.
Consider `COC(=O)N[C@H](C(=O)N1[C@@H]2C[C@@H]2C[C@H]1c1nc(Cl)c(-c2ccc(-c3ccc4c(ccc5nc([C@@H]6C[C@H]7C[C@H]7N6C(=O)[C@@H](NC(=O)OC)C(C)C)[nH]c54)c3)cc2F)[nH]1)C(C)C` [Example 395], for which the EC50 is 1 to 999 pM in experiment [1]; 0.004 nM in experiment [2]; 1 to 999 pM in experiment [3]; over 44000 pM in experiment [4]; 1 to 990 pM in experiment [5]; 1 to 990 pM in experiment [6]. The EC50 in experiment [7] is over 44000 pM.
As for `COC(=O)N[C@H](C(=O)N1CCC[C@H]1c1ncc(-c2ccc3c(c2)COc2c-3ccc3c2ccc2nc([C@@H]4CCCN4C(=O)[C@@H](NC(=O)OC)C(C)C)[nH]c23)[nH]1)C(C)C` [Example 400], the EC50 was 1 to 999 pM in experiment [1]; 0.017 nM in experiment [2]; 1 to 999 pM in experiment [3]; over 44000 pM in experiment [4]; 1 to 990 pM in experiment [5]; 1 to 990 pM in experiment [6]. For the same compound, in experiment [7], the EC50 is over 44000 pM.
For the compound `COC(=O)N[C@H](C(=O)N1CCC[C@H]1c1nc2ccc3cc(-c4ccc5c(ccc6nc([C@@H]7CCCN7C(=O)[C@H](NCC(F)(F)F)c7ccccc7)[nH]c65)c4)ccc3c2[nH]1)C(C)C` [Example 403], the EC50 in experiment [1] is 1 to 999 pM; in experiment [2], 0.014 nM; in experiment [3] it was 1 to 999 pM; in experiment [4], 1 to 999 pM; in experiment [5] it was 1 to 990 pM; in experiment [6], 1 to 990 pM. In experiment [7], the EC50 was 1 to 999 pM.
With `COC(=O)N[C@H](C(=O)N1CCC[C@H]1c1ncc(-c2cc3c4c(ccc5cc(-c6cnc([C@@H]7CCCN7C(=O)[C@@H](NC(=O)OC)C(C)C)[nH]6)cc(c54)OC3)c2)[nH]1)C(C)C` [Example 408], the EC50 in experiment [1] was 1 to 999 pM; in experiment [2], 0.022 nM; in experiment [3], 1 to 999 pM; in experiment [4], over 44000 pM; in experiment [5], 1 to 990 pM; in experiment [6], 1 to 990 pM. Moreover, in experiment [7], the EC50 is over 44000 pM.
Turning to `COC(=O)N[C@H](C(=O)N1CCC[C@H]1c1ncc(-c2ccc(-c3ccc4c(ccc5nc([C@@H]6[C@H]7CC[C@H](C7)N6C(=O)[C@H](NC(=O)OC)c6ccccc6)[nH]c54)c3)cc2)[nH]1)C(C)C` [Example 410], the EC50 is 1 to 999 pM in experiment [1]; 0.018 nM in experiment [2]; 1 to 999 pM in experiment [3]; over 44000 pM in experiment [4]; 1 to 990 pM in experiment [5]; 1 to 990 pM in experiment [6]. Besides, the EC50 in experiment [7] was 1000 to 44000 pM.
On to `COC(=O)N[C@H](C(=O)N1CC2(C[C@H]1c1nc3ccc4cc(-c5ccc(-c6cnc([C@@H]7CCCN7C(=O)[C@H](NC(=O)OC)c7ccccc7)[nH]6)cc5)ccc4c3[nH]1)OCCO2)C(C)C` [Example 411], for which the EC50 was 1 to 999 pM in experiment [1]; 0.034 nM in experiment [2]; 1 to 999 pM in experiment [3]; 1000 to 44000 pM in experiment [4]; 1 to 990 pM in experiment [5]; 1 to 990 pM in experiment [6]. For the same compound, the EC50 in experiment [7] fell in the range of 1000 to 44000 pM.
`COC(=O)N[C@H](C(=O)N1CCC[C@H]1c1nc2ccc3c4c(ccc3c2[nH]1)-c1ccc(-c2cnc([C@@H]3CCCN3C(=O)[C@H](NC(=O)OC)c3ccccc3)[nH]2)cc1CO4)C(C)C` [Example 412]: the EC50 is 1 to 999 pM in experiment [1]; 0.018 nM in experiment [2]; 1 to 999 pM in experiment [3]; 1 to 999 pM in experiment [4]; 1 to 990 pM in experiment [5]; 1 to 990 pM in experiment [6]. In addition, the EC50 in experiment [7] lay in the range of 1000 to 44000 pM.

For the origin of these results see US10344019B2 (priority 2010, dated 2019).
